Source: patent publication US12257214B2, “Compositions and methods comprising deoxy-pentitols” (The Charlotte Mecklenburg Hospital Authority, priority 2021, dated 2025)
pIC50: −log10 of the molar value.

What was measured:
A-172 = assay: ATPlite cell IC50 screening, A-172; type: cell-based; conditions: Homo sapiens; A-172, Glioblastoma; ATPlite luminescence
Procedure: (§1) In brief, the cells were cultures in relevant medium and treated with a range of 9 doses of 2-deoxyribitol, from 10 mM, 5 mM, 2.5 mM, 1.25 mM, 0.62 mM, 0.31 mM, 0.08 mM, and 0.04 mM. Cells were diluted in the corresponding ATCC recommended medium and dispensed in a 384-well plate, depending on the cell line used, at a density of 100-6400 cells per well in 45 μl medium. For each used cell line the optimal cell density was used. The margins of the plate were filled with phosphate-buffered saline. Plated cells were incubated in a humidified atmosphere of 5% CO2 at 37° C. After 24 hours, 5 μl of compound dilution was added and plates were further incubated. At the end of experiment (t=end), 24 μl of ATPlite 1Step™ (PerkinElmer) solution was added to each well, and subsequently shaken for 2 minutes. After 10 minutes of incubation in the dark, the luminescence was recorded on an Envision multimode reader (PerkinElmer). IC50 was determined in comparison with the control samples. The cell lines tested and their corresponding disease model is indicated the left-most and middle columns, respectively. IC50 values are given in μM values in the right-most column. This screening was performed of a list of cancer cells to establish IC50 values for each of the cancer cell lines. This screening provides evidence for the potential of 2DR to treat many cancer types.

A-204 = assay: ATPlite cell IC50 screening, A-204; type: cell-based; conditions: Homo sapiens, A204; A-204, Embryonal rhabdomyosarcoma; ATPlite luminescence
Procedure: as §1

A-549 = assay: ATPlite cell IC50 screening, A-549; type: cell-based; conditions: Homo sapiens, A549; A-549, Lung adenocarcinoma; ATPlite luminescence
Procedure: as §1

BxPC-3 = assay: ATPlite cell IC50 screening, BxPC-3; type: cell-based; conditions: Homo sapiens; BxPC-3, Pancreatic ductal adenocarcinoma; ATPlite luminescence
Procedure: as §1

CCF-STTG1 = assay: ATPlite cell IC50 screening, CCF-STTG1; type: cell-based; conditions: Homo sapiens; CCF-STTG1, Astrocytoma; ATPlite luminescence
Procedure: as §1

COLO 205 = assay: ATPlite cell IC50 screening, COLO 205; type: cell-based; conditions: Homo sapiens; COLO 205, Colon adenocarcinoma; ATPlite luminescence
Procedure: as §1

COLO 829 = assay: ATPlite cell IC50 screening, COLO 829; type: cell-based; conditions: Homo sapiens; COLO 829, Cutaneous melanoma; ATPlite luminescence
Procedure: as §1

Daoy = assay: ATPlite cell IC50 screening, Daoy; type: cell-based; conditions: Homo sapiens, Medulloblastoma, ATPlite luminescence
Procedure: as §1

DLD-1 = assay: ATPlite cell IC50 screening, DLD-1; type: cell-based; conditions: Homo sapiens; DLD-1, Colon adenocarcinoma; ATPlite luminescence
Procedure: as §1

DU4475 = assay: ATPlite cell IC50 screening, DU4475; type: cell-based; conditions: Homo sapiens, DU-4475; DU4475, Breast carcinoma; ATPlite luminescence
Procedure: as §1

ES-2 = assay: ATPlite cell IC50 screening, ES-2; type: cell-based; conditions: Homo sapiens; ES-2, Ovarian clear cell adenocarcinoma; ATPlite luminescence
Procedure: as §1

HuTu 80 = assay: ATPlite cell IC50 screening, HuTu 80; type: cell-based; conditions: Homo sapiens, HuTu80; HuTu 80, Duodenal adenocarcinoma; ATPlite luminescence
Procedure: as §1

Jurkat E6.1 = assay: ATPlite cell IC50 screening, Jurkat E6.1; type: cell-based; conditions: Homo sapiens; Jurkat E6.1, Childhood T acute lymphoblastic leukemia; ATPlite luminescence
Procedure: as §1

MIA PaCa-2 = assay: ATPlite cell IC50 screening, MIA PaCa-2; type: cell-based; conditions: Homo sapiens; MIA PaCa-2, Pancreatic ductal adenocarcinoma; ATPlite luminescence
Procedure: as §1

MOLT-4 = assay: ATPlite cell IC50 screening, MOLT-4; type: cell-based; conditions: Homo sapiens; MOLT-4, Adult T acute lymphoblastic leukemia; ATPlite luminescence
Procedure: as §1

RL95-2 = assay: ATPlite cell IC50 screening, RL95-2; type: cell-based; conditions: Homo sapiens; RL95-2, Endometrial adenosquamous carcinoma; ATPlite luminescence
Procedure: as §1

RPMI-7951 = assay: ATPlite cell IC50 screening, RPMI-7951; type: cell-based; conditions: Homo sapiens; RPMI-7951, Melanoma; ATPlite luminescence
Procedure: as §1

RS4-11 = assay: ATPlite cell IC50 screening, RS4-11; type: cell-based; conditions: Homo sapiens; RS4-11, Adult B acute lymphoblastic leukemia; ATPlite luminescence
Procedure: as §1

SR = assay: ATPlite cell IC50 screening, SR; type: cell-based; conditions: Homo sapiens, Anaplastic large cell lymphoma, ATPlite luminescence
Procedure: as §1

SU-DHL-1 = assay: ATPlite cell IC50 screening, SU-DHL-1; type: cell-based; conditions: Homo sapiens; SU-DHL-1, Anaplastic large cell lymphoma; ATPlite luminescence
Procedure: as §1

SUP-T1 = assay: ATPlite cell IC50 screening, SUP-T1; type: cell-based; conditions: Homo sapiens; SUP-T1, Childhood T lymphoblastic lymphoma; ATPlite luminescence
Procedure: as §1

SW48 = assay: ATPlite cell IC50 screening, SW48; type: cell-based; conditions: Homo sapiens; SW48, Colon adenocarcinoma; ATPlite luminescence
Procedure: as §1

SW900 = assay: ATPlite cell IC50 screening, SW900; type: cell-based; conditions: Homo sapiens; SW900, Squamous cell lung carcinoma; ATPlite luminescence
Procedure: as §1

VA-ES-BJ = assay: ATPlite cell IC50 screening, VA-ES-BJ; type: cell-based; conditions: Epithelioid sarcoma, ATPlite luminescence
Procedure: as §1

MCF7 cells = assay: Anchorage independent growth, tumor colonies in agar gel (FIG. 3); type: cell-based; conditions: 20 days
Source text: Stars indicate a significant difference as compared to the control (p<0.01, n=3).
However, this effect was not related to the enhanced expression of glycosylation of α-DG.

[1] = test system: prostate cancer cell line LNCaP; assay: LNCaP cell culture, growth and death (FIG. 5, FIG. 10); type: cell-based
Procedure: A dose dependent decrease in cell density was clearly detected with 2-deoxyribitol treatment, but not with ribitol treatment.
Less than 50% of cells and 10% of cells were detected with the treatment of 10 mM and 50 mM 2-deoxyribitol, respectively.

Storage stability = type: physicochemical; conditions: 4 degrees Celsius, highly stable
Source text: It can be delivered by direct application to local areas, given orally or through vasculature system. 2-deoxyribitol can also be delivered before, at the same time, or after the use of other drugs. 2-deoxyribitol can be applied as treatment for cancers before, at the same time, or after any other treatment procedure(s). In addition, the effect of 2-deoxyribitol on three tissue types of cancers indicate that it can be applied for many other epithelial cancers.

OCC[C@H](O)[C@H](O)CO [2-deoxyribitol]
pIC50 (A-172): < 2.00 | pIC50 (A-204): 2.22 | pIC50 (A-549): 2.00 | pIC50 (BxPC-3): 2.11 | pIC50 (CCF-STTG1): 2.23 | pIC50 (COLO 205): 2.34 | pIC50 (COLO 829): 2.20 | pIC50 (Daoy): 2.20 | pIC50 (DLD-1): 2.34 | pIC50 (DU4475): 2.24 | pIC50 (ES-2): 2.06 | pIC50 (HuTu 80): 2.31 | pIC50 (Jurkat E6.1): 2.33 | pIC50 (MIA PaCa-2): 2.31 | pIC50 (MOLT-4): 2.31 | pIC50 (RL95-2): 2.19 | pIC50 (RPMI-7951): 2.17 | pIC50 (RS4-11): 2.51 | pIC50 (SR): 2.37 | pIC50 (SU-DHL-1): 2.58 | pIC50 (SUP-T1): 2.51 | pIC50 (SW48): 2.35 | pIC50 (SW900): 2.50 | pIC50 (VA-ES-BJ): 2.28 | cell colonies in agar culture (MCF7 cells; 10 mM): absence of cell colony | anchorage independent growth (formation of tumor colonies within agar gel) (MCF7 cells; 10 mM and 20 mM): significantly inhibited | cells detected after treatment ([1]; 10 mM, 4 days): Less than 50% | number of cancer cells / anticancer effect ([1]; 10 mM, 7 days (FIG. 10)): markedly reduces the number of cancer cells | cells detected after treatment ([1]; 50 mM, 4 days): < 10% | effect on cell growth, death and cell density ([1]; 2-50 mM, 4 days): dose dependent inhibition in cell growth and death | stability on storage (Storage stability): at least 6 months
